Results taken from paper PMC11820896, “New Compounds with Enhanced Biological Activity Through the Strategic Introduction of Silylated Groups into Hydroxystearic Acids” (Molecules, 2025).

How the values were obtained:
SCD1 = SCD1 protein, Western blot; format: cell-based, human; conditions: 50 nM, 48 h, HT29
Experimental: (§1) HT29 cells were seeded at a density of 5.0 × 10^4 cells/cm^2 in a Petri dish and treated with 50 nM of compound 4 for 48 h. Cells were then washed with PBS and incubated with the lysis buffer radio immunoprecipitation assay (RIPA) at 4 °C for 15 min with agitation. The proteins were quantified using the Bio-Rad protein assay (Bio-Rad, Hercules, CA, USA) and analyzed by SDS-PAGE and Western blot.
(§2) For the analysis of protein phosphorylation, protein samples (30 μg) were separated on 12% SDS-PAGE in Tris-glycine buffer by electrophoresis at 200 V for 1 h. […] Densitometric analysis was performed with ImageLab 6.1 software (Bio-Rad, Hercules, CA, USA), and bands were normalized to the respective total protein content. For SCD1 analysis, protein samples were resolved on a 10% gel in MOPS buffer at 200 V for 45 min. After electrophoresis and Western blot, the nitrocellulose membrane was incubated overnight at 4 °C with primary antibody anti-SCD1 (Biorbyt, Durham, NC, USA) diluted in PBS-TWEEN 20 0.1%. The membrane was incubated for 1 h with a secondary horseradish peroxidase-conjugated antibody (GE Healthcare, Chicago, IL, USA) and then detected as described above. Quantification was completed by a Fluor-S Max MultiImager (Bio-Rad, Hercules, CA, USA) using a β-tubulin signal as a control.

FASN = FASN mRNA expression, qRT-PCR; format: cell-based, human; conditions: after 6 h of treatment, HT29
Experimental: Total RNA from control- and 4-treated HT29 cells was isolated using the RNeasy Mini Kit (Qiagen, Hilden, Germany) according to the manufacturer's protocol. RNA was quantified using the NanoDrop spectrophotometer (Thermo Fisher Scientific, Waltham, MA, USA). RNA (1 μg) was transcribed into cDNA using the PrimeScript RT Master Mix (Perfect Real Time) (Takara Bio, Kusatsu, Japan) according to the manufacturer's instructions. Real-time PCR was performed using the Sybr Premix Ex Taq Takara kit (Takara Bio, Kusatsu, Japan) and the LightCycler 2.0 instrument (Roche Diagnostic, Basel, Switzerland). The following primers (Sigma-Aldrich, Milan, Italy) were used: [NT] (forward) and [NT] (reverse) for FASN detection, [NT] (forward) and [NT] (reverse) for SCD1 detection, and [NT] (forward) and [NT] (reverse) for the detection of β-actin. The first gene analyzed was the housekeeping gene β-actin, and its CT values were used as standards in the ΔΔCT method of result analysis. cDNA samples from HT29-treated cells were compared with untreated control cells.

HT29 cells [1] = experiment: Western blot of tyrosine residue phosphorylation; format: cell-based, human; conditions: most at proteins above 50 KDa
Experimental: as §1, §2

I407 = experiment: MTT assay, normal I407 cells; format: cell-based; conditions: Homo sapiens; normal intestinal line; MTT after 24 h of treatment; means of four experiments
Experimental: (§3) The human colorectal adenocarcinoma (Caco-2), human colorectal adenocarcinoma (HT29), normal human intestinal (I407), human cervical cancer (HeLa), human breast cancer (MCF7), human bone osteosarcoma (U2OS), and human acute T-cell leukemia (Jurkat J6) cell lines were purchased from American Type Culture Collection (ATCC, Manassas, VA, USA). Cells were cultured in RPMI 1640 medium (Labtek Eurobio, Milan, Italy), supplemented with 10% FCS (Euroclone, Milano, Italy) and 2 mM L-glutamine (Sigma-Aldrich, Milano, Italy), at 37 °C and in a 5% CO2 atmosphere. The compounds were dissolved in DMSO in a 30–40 mM stock solution. In cell treatments, the final DMSO concentration never exceeded 0.1%.
(§4) Cells were seeded in a 96-well culture plastic plate (Sarsted, Milan, Italy), at 5 × 10^4 cells/well and, after 24 h, were exposed to increasing concentrations of the different compounds (from 1 nM to 500 nM) dissolved in RPMI 1640 medium. An MTT assay was performed according to Micheletti et al..
(§5) The absorbance at 570 nm was measured using a multi-well plate reader (Tecan, Männedorf, Switzerland), and data were analyzed by Prism GraphPad 8 software and expressed as IC50 nM.

MCF7 = experiment: MTT assay, MCF7 cells; format: cell-based; conditions: Homo sapiens, means of four experiments, na = not active, read-out: In vitro cytotoxic activity (IC50), MCF7
Experimental: as §3, §4, §5

HT29 cells [2] = experiment: Mitochondrial potential by JC-1 staining; format: cell-based, human; conditions: 24 h treatment
Experimental: JC-1 is a dye that is permeable to alive cells and is accumulated in the anionic mitochondrial matrix indicating the level of mitochondrial potential. When present at low concentrations, the JC-1 monomer fluorescence is green (around 535 nm), while at increased concentration, it can aggregate and fluoresces in the red (600 nm). The ratio between the red fluorescence and the green one is directly proportional to the mitochondrial activity. […] Negative controls were treated in the same way, but JC-1 was not added to these samples. The plates were read on the Ensight plate reader, exciting the red fluorescence at 506 nm and the green one at 488 nm, while the emission was, respectively, read at 595 nm and 535 nm, and the ratio between the red and green fluorescence was calculated.

[3] = test system: histones H2/H3 and H4 of HT29 cells; experiment: Histone acetylation status, Western blot; format: cell-based, human; conditions: 50 nM, 6 h
Experimental: HT29 were seeded at a density of 1.5 × 10^4 cell/cm^2 in a Petri dish and, after 24 h, treated for 6 h with 50 nM of compound 4. Cells were harvested, and histones were extracted by previously isolated nuclei according to […] al.. The proteins were resolved on a 10% gel in MES buffer at 200 V for 35 min and immunoblotted with mouse anti-acetylated lysines (Millipore, Billerica, MA, USA) or rabbit anti-γH2Ax (Santa Cruz Biotechnology, Dallas, TX, USA) primary antibodies. The membranes were developed with Clarity Western ECL Substrate (Bio-Rad, Hercules, CA, USA) after incubation with mouse or rabbit secondary horseradish peroxidase-conjugated antibody (GE Healthcare, Chicago, IL, USA). SDS-PAGE was stained with Coomassie Brilliant Blue R-250 (Bio-Rad, Hercules, CA, USA), while densitometric analyses were performed using a Fluor-S Max MultiImager (Bio-Rad, Hercules, CA, USA), and relative quantification of histone acetylation and histone H2Ax phosphorylation signals were normalized to the H1 signal as a control.

With CCCCCCCCC[C@H](CCCCCCCC(=O)O)O[Si](C)(C)C(C)(C)C [Compound 4, (R)-9-((tert-butyldimethylsilyl)oxy)octadecanoic acid] the SCD1 protein amount (SCD1) was “decrease in the amount of its protein product”, the FASN gene expression (FASN) was “marked down-regulation” and the “phosphorylation levels at tyrosine residues of proteins” value (HT29 cells [1]) was “decrease in phosphorylation levels”. The IC50 (I407) was 61.91 ± 0.26 nM, the IC50 (MCF7) was 211.6 ± 0.23 nM and the “change in mitochondrial potential” value (HT29 cells [2]) was “does not lead to a change”. For the same compound, the “acetylation state of histones H2/H3 and H4” value [3] was “extended increase”.
